Results published in PubChem BioAssay AID1159560 (GlaxoSmithKline (GSK), 2015).
Activity calls are given as the source filed them. How the calls were made is not given here.

System: Leishmania donovani growth inhibition
Assay: antileishmanial activity against L. donovani parasites (AID 1159560);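 further: parasites exposed to compound for 72 h before the viability read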

SMILES | IC50
CN(C)c1ncc(-c2cncn2CCOc2ccc(Cl)cc2)cn1 | > 50 µM (inactive)
C[C@@H](Oc1cc(-n2cnc3ccc(C(O)CO)cc32)sc1C(N)=O)c1ccccc1C(F)(F)F (stereo partly drawn) | 16 µM
O=C(Cn1cnc2cc([N+](=O)[O-])ccc2c1=O)NCCc1ccc(Cl)cc1Cl | > 50 µM (inactive)
CC(=Cc1ccccc1)CN1CCC(=O)N(Cc2cccnc2)CC1 | > 50 µM (inactive)
Cc1ccc(C)c(CN2C(=O)NC3(CCc4ccccc43)C2=O)c1 (stereo not drawn) | > 50 µM (inactive)
O=C(NC(c1ccc(Cl)cc1)c1cnccn1)C1CCN(C(=O)Nc2cccc(C(F)(F)F)c2)CC1 (stereo not drawn) | 20 µM
CCCCc1cc(Nc2cc(C3CCC3)[nH]n2)nc(N2CCC2C(N)=O)n1 (stereo not drawn) | 4 µM
O=C(CCCNC(=O)c1ccc(Cl)cc1)Nc1nc(-c2ccccn2)cs1 | > 50 µM (inactive)
CNc1nc(C)nc(N2CCc3cc(C(=O)NCc4ccc(-c5nccn5C)cc4Cl)ccc32)n1 | 5 µM
COc1ccc(CN(C)Cc2ccncc2)cc1-c1ccc(S(=O)(=O)NC2CCC2)s1 | 40 µM
O=C(CN(c1cccc(C(F)(F)F)c1)S(=O)(=O)c1ccc(Cl)cc1)NCc1ccc(F)c(F)c1 | > 50 µM (inactive)
CCNc1cc(-c2ccccn2)nc(Nc2ccc(OC)cc2)n1 | 1.6 µM
CCCCCNC(=O)c1c[nH]c2ccc(S(=O)(=O)N(C)c3ccc(OCC)cc3)cc2c1=O | > 50 µM (inactive)
O=C1c2cnc(N3CCCC3)nc2CN1c1ccc2c(c1)OCO2 | 6.3 µM
Cc1ccccc1CNc1cc(C2CC2)nc(-c2nccn2C)n1 | 1.6 µM
CCCCN(C(=O)c1ccc(NC(=O)C(C)C)cc1)c1ccccc1 | 1 µM
CC(C)CC(=O)NC(c1cccs1)c1ccc2cccnc2c1O (stereo not drawn) | 6.3 µM
NS(=O)(=O)c1ccc(CNC(=O)c2ccc([N+](=O)[O-])s2)cc1 | 32 µM
CN(C)S(=O)(=O)c1cccc(C(=O)Nc2nc(-c3ccccn3)cs2)c1 | 1.3 µM
O=C1CN(C(=O)c2cccc(Nc3ncc(-c4ccc5c(c4)OCO5)cn3)c2)CCN1 | 1.6 µM
CNC(=O)C1Cc2ccccc2N1C(=O)Cc1ccccc1 (stereo not drawn) | > 50 µM (inactive)
Cc1nc2c(-c3nc(-c4ccc(N)cc4)n[nH]3)cccn2c1C | 3.2 µM
CC1=C(C(=O)Nc2ccc(Cl)cc2)C(c2ccncc2)n2ncc(C(=O)Nc3ccccc3)c2N1 (stereo not drawn) | 0.13 µM
O=c1[nH]cnc2c([C@@H]3O[C@H](CO)[C@@H](O)[C@H]3O)[nH]nc12 | 0.4 µM
CCC(CC)C(=O)Nc1ccc(-c2nnc(-c3ccc(OC)cc3)o2)cc1 | > 50 µM (inactive)

SMILES | IC50
O=C1CN(Cc2ccco2)C2CS(=O)(=O)CC2N1c1ccc(Cl)cc1 (stereo not drawn) | > 50 µM (inactive)
CS(=O)(=O)c1cccc(CNC(=O)c2cncc(N3CCN(c4ccc(F)cc4)CC3)c2)c1 | > 50 µM (inactive)
COc1cc(F)c2ncc(F)c(CCN3CC[C@H](NCc4cc5c(cn4)OCS5)[C@@H](O)C3)c2c1 | 25 µM
CCCc1cc(N)nc(-c2cc(CCC)cc(N)n2)c1 | 20 µM
O=C1OCc2ccc(Nc3nccc(-c4cnn5ncccc45)n3)cc21 | 0.063 µM
COc1ncc(-c2ccc3nccc(-c4ccncc4)c3c2)cc1NS(=O)(=O)C1CC1 | 1.3 µM
Cc1ccc(Nc2nc(N)nc(CNC(c3nc4ccccc4[nH]3)C(C)C)n2)cc1 (stereo not drawn) | 4 µM
Cc1nc2nc(C)c(Cc3ccc(C(C)C)cc3)c(=O)n2[nH]1 | 1.3 µM
CCOc1ccccc1C(=O)Nc1nnc(-c2ccc3c(c2)OCO3)s1 | 0.79 µM
CC(C)(C)Nc1nc(-c2ccccn2)nc2ccccc12 | 6.3 µM
CN(C)Cc1cccc(Nc2nccc(-c3ccc(NCCN)c(C#N)c3)n2)c1 | 2.5 µM
CS(=O)(=O)c1cccc(-c2cnc(N)c3c(-c4ccc(CO)cc4)csc23)c1 | 40 µM
O=C(Cn1cnc2c(-c3ccccc3)csc2c1=O)N1CCCCC1 | > 50 µM (inactive)
Cn1cc(CN2CCN(c3ccc4c(c3)CCN(C(=O)[C@H]3C[C@@H]3c3ccccc3)CC4)CC2)cn1 | 0.63 µM
Cc1nc(N2CCC(C(=O)N3CCC(O)(c4cccnc4)CC3)CC2)nc2ccc(C(C)C)cc12 | > 50 µM (inactive)
Nc1nc(-c2ccccc2)cc(-c2nc3ncccc3[nH]2)n1 | 4 µM
CC(C)N(C(=O)CN1C(=O)C(N)C(=O)N(c2ccccc2)c2ccccc21)c1ccccc1 (stereo not drawn) | > 50 µM (inactive)
CC(Cn1ccnc1)NC(=O)C1CC1c1cccc(Cl)c1Cl (stereo not drawn) | 16 µM
Cc1ccc2onc(Nc3ccnc(Nc4cccc(S(C)(=O)=O)c4)n3)c2c1 | 5 µM
c1ccc(CCNCc2cncc3nc(-c4cnccn4)n(C4CCCCC4)c23)cc1 | > 50 µM (inactive)
CC(=O)Nc1ccc(Nc2nccc(-c3cnn4ncccc34)n2)cc1C(F)(F)F | 0.2 µM
N#Cc1ccc(S(=O)(=O)N2CCC3(CCN(c4ccccc4)C3=O)CC2)cc1 | > 50 µM (inactive)
O=C(c1cccc(Cl)c1Cl)N1CCn2c1nc(-c1ccncc1)cc2=O | 50 µM
CN(C)CCOc1ccc(N2CCN(S(=O)(=O)c3ccc(Cl)cc3)CC2)cc1 | 40 µM
CC(C)(C)Nc1nc(Nc2ccc3c(c2)CS(=O)(=O)C3)nc2[nH]ccc12 | 7.9 µM

SMILES | IC50
CC(=O)Nc1cccc(Nc2ncnc3nc[nH]c23)c1 | > 50 µM (inactive)
Cc1[nH]nc(Nc2ccnc3[nH]ccc23)c1C | > 50 µM (inactive)
Nc1cc(-c2ccc3ncnc(N4CCOCC4)c3c2)cnc1N | 4 µM
Cc1cc(N2CCc3ccccc3C2)nc(Nc2ccc(S(=O)(=O)N3CCOCC3)cc2)n1 | 3.2 µM
CC(C)(C)C(=O)Nc1cc(C2CC2)nn1-c1nc2c(c(=O)[nH]1)CCCC2 | 0.079 µM
Cc1ccc(NC(=O)C(C)n2nc([N+](=O)[O-])c(Br)c2C)cc1Cl (stereo not drawn) | > 50 µM (inactive)
CNC(=O)C1Cc2ccccc2N1C(=O)COc1cccc(OC)c1 (stereo not drawn) | > 50 µM (inactive)
O=C(NCc1ccncc1)c1ccccc1N1CCCN(C(=O)Cc2ccc(F)c(F)c2)CC1 | 2.5 µM
Cc1nc(-c2nc(NCc3ccc(Cl)cc3)c3cccnc3c2O)n[nH]1 | 2 µM
CS(=O)(=O)NC1CCC(Nc2ncc(Br)c(Nc3ccccc3C(N)=O)n2)CC1 (stereo not drawn) | 1 µM
COc1ccc2ncc(Cl)c(CCN3CC[C@@H](NCc4cc5c(cn4)OCS5)[C@H](O)C3)c2n1 | 10 µM
COc1ccc(C2C3CCCCC3(O)CCN2CC(=O)Nc2ccc(Cl)cc2Cl)cc1 (stereo not drawn) | 1.6 µM
COc1ccc(C(=O)Nc2cc(C(F)(F)F)ccc2N2CCOCC2)c(OC)c1 | 5 µM
O=C(NC1CCN(C2Cc3ccc(NS(=O)(=O)c4cc(F)cc(F)c4)cc3C2)CC1)C1CC1 (stereo not drawn) | 25 µM
CS(=O)(=O)c1ccc(CC(=O)Nc2nc(-c3ccc(Cl)s3)cs2)cc1 | > 50 µM (inactive)
CCc1cccc(CC)c1-n1c(SCC(=O)N2CC(=O)Nc3ccccc32)nnc1-c1cccnc1 | 40 µM
COc1ccc(-c2csc(NC(=O)c3ccc([N+](=O)[O-])s3)n2)cc1OC | 1 µM
Clc1ccc(OCCN2CCCCC2c2cccnc2)c(Cl)c1 (stereo not drawn) | 5 µM
Cn1nc(-c2ccc(NC(=O)Cc3ccccc3Cl)cc2)c2c(N)ncnc21 | > 50 µM (inactive)
CN(C)CCN(C)Cc1ccc(Cl)cc1NS(=O)(=O)c1ccc(Cl)c(Cl)c1 | 5 µM
CCN(CC)S(=O)(=O)c1ccc(C(=O)Nc2cc(C)nn2-c2nc(C)c(C)c(=O)[nH]2)cc1 | 0.5 µM
O=C(NCCc1csc(-c2ccc(F)cc2)n1)c1ccco1 | > 50 µM (inactive)
O=C(Cc1ccccc1)Nc1ccccc1C(=O)Nc1nccs1 | > 50 µM (inactive)
